The structures appear in SMILES notation. Peptide text beside a SMILES is read from it.

In one assay the target is T1, eIF2Bα (Homo sapiens, UniProt Q14232).
T1 construct: made in house; host or cells: E. coli BL21(DE3)
T1 sequence (Q14232 1-305): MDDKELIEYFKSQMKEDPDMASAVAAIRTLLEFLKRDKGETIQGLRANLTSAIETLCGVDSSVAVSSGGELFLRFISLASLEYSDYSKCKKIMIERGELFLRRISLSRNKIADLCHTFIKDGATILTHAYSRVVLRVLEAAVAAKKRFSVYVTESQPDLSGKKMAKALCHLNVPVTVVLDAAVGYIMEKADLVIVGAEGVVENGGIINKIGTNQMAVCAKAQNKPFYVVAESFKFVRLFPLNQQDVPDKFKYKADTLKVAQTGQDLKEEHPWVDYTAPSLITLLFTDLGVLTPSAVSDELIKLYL
Briefly: MIDAS (mass spectrometry integrated with equilibrium dialysis) metabolite binding screen. Particulars: MIDAS metabolite binding screen with eIF2Bα; sheet "eIF2Ba". In short, it runs like this:
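Hits called at Storey q < 0.1 on z-scores of PCA-corrected log2 fold change between protein and metabolite chambers, quantified by FIA-MS in triplicate.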
On to `CC(C)CC(=O)SCCNC(=O)CCNC(=O)[C@H](O)C(C)(C)COP(=O)(O)OP(=O)(O)OC[C@H]1O[C@@H](n2cnc3c(N)ncnc32)[C@H](O)[C@@H]1OP(=O)(O)O` [Isovaleryl coenzyme A], for which the “log2(corrected fold change)” value came to 0.1853.
Same read-out and setting: to `O=C(O)CCC(=O)C(=O)O` [Ketoglutaric acid] belongs 0.06742.
The same measure, in the same setting: to `C[C@H](N)C(=O)O` [L-Alanine] belongs 0.0004222; to `CC[C@@H](C)[C@H](N)C(=O)O` [L-Alloisoleucine], -0.00688; to `O=C[C@H](O)[C@@H](O)[C@@H](O)CO` [L-Arabinose_1], 0.02262.
Regarding `NCCC(=O)N[C@@H](Cc1cnc[nH]1)C(=O)O` [L-Carnosine], the “log2(corrected fold change)” value is recorded as -0.01554.
In the case of `NC(=O)NCCC[C@H](N)C(=O)O` [L-Citrulline], the “log2(corrected fold change)” value was -0.01086.
On the same count and under the same terms, to `N[C@@H](CCSC[C@H](N)C(=O)O)C(=O)O` [L-Cystathionine] belongs -0.03443; to `N[C@@H](CS(=O)(=O)O)C(=O)O` [L-Cysteic acid], 0.001606.
The same measure, in the same setting: with `N[C@@H](CSSC[C@H](N)C(=O)O)C(=O)O` [L-Cystine] the figure was 0.04101.
On the same count and under the same terms, to `C[C@@H]1O[C@H](OP(=O)(O)O)[C@@H](O)[C@H](O)[C@@H]1O` [L-Fucose 1-phosphate] belongs -0.0359; to `C[C@H](O)[C@@H](O)[C@@H](O)[C@H](O)C=O` [L-Fucose], -0.06063; to `O=C1O[C@H]([C@@H](O)CO)[C@H](O)[C@@H]1O` [L-Gulonic acid gamma-lactone], 0.02733.
With `O=C(O)CC[C@H](O)C(=O)O` [L-Hydroxyglutaric acid], the “log2(corrected fold change)” value is on record as -0.0058.
Same read-out and setting: with `CC[C@H](C)[C@H](N)C(=O)O` [L-Isoleucine] the figure was -0.00688.
Same read-out and setting: to `C[C@H](O)C(=O)O` [L-Lactic acid] belongs -0.02892; to `CC(C)C[C@H](N)C(=O)O` [L-Leucine], -0.00688.
Same read-out and setting: with `O=C(O)C[C@H](O)C(=O)O` [L-Malic acid] the figure was -0.01079.
In the case of `N[C@@H](Cc1ccccc1)C(=O)O` [L-Phenylalanine], the “log2(corrected fold change)” value is recorded as -0.04409.
Still for that read-out and setting: to `N[C@@H](CCCCN[C@@H](CCC(=O)O)C(=O)O)C(=O)O` [L-Saccharopine] belongs -0.0272; to `N[C@@H](CO)C(=O)O` [L-Serine], -0.04824.
On the same count and under the same terms, with `C[C@@H](O)[C@H](N)C(=O)O` [L-Threonine] the figure was -0.05619; with `C[N+](C)(C)CCOP(=O)([O-])OC[C@H](O)CO` [L-alpha-Glycerophosphorylcholine], 0.1951; with `CC(C)(CO[P@@](=O)(O)O[P@@](=O)(O)OC[C@H]1O[C@@H](n2cnc3c(N)ncnc32)[C@H](O)[C@@H]1OP(=O)(O)O)[C@@H](O)C(=O)NCCC(=O)NCCSC(=O)CC(=O)O` [Malonyl coenzyme A], -0.02331.
With `OC[C@H]1O[C@H](OCC2O[C@@H](O)[C@H](O)[C@@H](O)[C@@H]2O)[C@H](O)[C@@H](O)[C@H]1O` (stereo partly shown) [Melibiose], the “log2(corrected fold change)” value is -0.003615.
On the same count and under the same terms, to `CC(C(=O)O)C(=O)O` [Methylmalonic acid] belongs -0.05121; to `CN(C)CC(=O)O` [N,N-Dimethylglycine], 0.0213; to `CC(=O)N[C@@H](CC(=O)O)C(=O)N[C@@H](CCC(=O)O)C(=O)O` [N-Acetyl-Asp-Glu] (Ac-Asp-Glu-OH), 0.1173.
On to `CC(=O)N[C@H]1C(OP(=O)(O)O)O[C@H](CO)[C@@H](O)[C@@H]1O` (stereo partly drawn) [N-Acetyl-D-glucosamine 1-phosphate], for which the “log2(corrected fold change)” value is recorded as -0.08166.
Still for that read-out and setting: to `CC(=O)N[C@H]1C(O)O[C@H](COP(=O)(O)O)[C@@H](O)[C@@H]1O` (stereo partly drawn) [N-Acetyl-D-glucosamine 6-phosphate] belongs -0.009906.

The assay is the same for the next values; noted with them: MIDAS screen, sheet eIF2Ba; metabolites screened in pools 1-4; p-value and q-value given.
For the compound `CC[C@H](N)C(=O)O` [L-2-Aminobutyric acid], the “log2(corrected fold change)” value was -0.1029.
The same measure, in the same setting: with `O[C@@H]1[C@@H](O)[C@@H](O)CO[C@H]1O` [L-Arabinose] the figure was -0.1354; with `NC(=O)C[C@H](N)C(=O)O` [L-Asparagine], 0.07649; with `N[C@@H](CC(=O)O)C(=O)O` [L-Aspartate], 0.03257.
Still for that read-out and setting: to `N[C@@H](CS)C(=O)O` [L-Cysteine] belongs -0.1221; to `O=C1C[C@@H](C(=O)O)NC(=O)N1` [L-Dihydroorotic acid], -0.07946; to `N[C@@H](CCC(=O)O)C(=O)O` [L-Glutamic acid], -0.006334.
Consider `NC(=O)CC[C@H](N)C(=O)O` [L-Glutamine], for which the “log2(corrected fold change)” value was 0.1976.
For the compound `N[C@@H](Cc1c[nH]cn1)C(=O)O` [L-Histidine], the “log2(corrected fold change)” value is reported as 0.05971.
Take `Nc1ccccc1C(=O)C[C@H](N)C(=O)O` [L-Kynurenine]: the “log2(corrected fold change)” value was 0.1418.
Still for that read-out and setting: with `NCCCC[C@H](N)C(=O)O` [L-Lysine] the figure was -0.06897; with `CSCC[C@H](N)C(=O)O` [L-Methionine], 0.06465; with `O=C(O)[C@@H]1CCCCN1` [L-Pipecolic acid], -0.07553.
Same read-out and setting: to `O=C(O)[C@@H]1CCCN1` [L-Proline] belongs -0.05584; to `O=C(O)[C@@H]1CCC(O)=N1` [L-Pyroglutamic acid], -0.09309.
Take `O=C(CO)[C@@H](O)[C@@H](O)CO` [L-Ribulose]: the “log2(corrected fold change)” value was -0.1354.
On the same count and under the same terms, with `N[C@@H](Cc1c[nH]c2ccccc12)C(=O)O` [L-Tryptophan] the figure was 0.08785; with `CC(C)[C@H](N)C(=O)O` [L-Valine], -0.07845.
`N[C@@H](CC(=O)O)C(=O)N[C@@H](Cc1ccccc1)C(=O)O` [L-a-Aspartyl-L-phenylalanine] (H-Asp-Phe-OH): the “log2(corrected fold change)” value was -0.1203.
On the same count and under the same terms, to `O=P(O)(O)OC1O[C@H](CO)[C@@H](O)[C@H](O)[C@@H]1O` (stereo partly shown) [Mannose 1-phosphate] belongs -0.1344; to `CNCC(O)c1ccc(O)c(OC)c1` (stereo not shown) [Metanephrine], -0.1853.
Still for that read-out and setting: to `CC(=O)N[C@H]1[C@H](O[C@H]2[C@H](O)[C@@H](NC(C)=O)C(O)O[C@@H]2CO)O[C@H](CO)[C@@H](O)[C@@H]1O` (stereo partly shown) [N,N-Diacetylchitobiose] belongs 0.08913; to `O=C(O)CNC(=O)c1ccco1` [N-2-Furoylglycine], -0.1649; to `CC(=O)NCCc1c[nH]c2ccc(O)cc12` [N-Acetyl-5-hydroxytryptamine], 0.03423.
On the same count and under the same terms, with `CC(=O)N[C@H]1C(O)O[C@H](CO)[C@H](O)[C@@H]1O` (stereo partly drawn) [N-Acetyl-D-galactosamine] the figure was 0.3673.

Source of the values: PMC8187479, “Sugar phosphate activation of the stress sensor eIF2B” (Nature Communications, 2021).
